The test system of assay [1] is split IL-2 CISC (FRB-IL2RB and FKBP-IL2RG) dual-edited human CD4+ T cells. As to the kind of experiment: Enrichment of split IL-2 CISC dual-edited CD4+ T cells. It counts as cell-based. On the procedure: FIG. 27 depicts an exemplary timeline of steps for dual AAV editing of CD4+ T cells, expansion with rapalog, and analysis of enriched cells. […] Flow cytometry to assess enrichment of GFP, mCherry double-positive cells was carried out on days 6, 8, and 10 post-editing.
CISC components (IL2RG vs. IL2RB) are split between 2 constructs and co-expressed with either HA-FoxP3 cDNA or the islet-specific TCR, T1D4 (AAVs #3240 and #3243 respectively). Each repair template is flanked by identical homology arms that […] the gRNA targeting the TRAC locus. […] Panel B depicts a timeline of key steps for dual AAV/RNP-based editing of CD4+ T cells, expansion with Rapalog and analysis of enriched cells. […] Flow cytometry to assess enrichment of HA-FoxP3, TCR double-positive cells was carried out on days 5 and 8 post-editing.
FIG. 60 relates to a strategy for testing two-loci dual-editing of human CD4+ T cells. […] CISC components are split between 2 constructs and co-expressed with either mCherry or GFP ([…]). Repair templates are flanked by homology arms matched to gRNAs targeting either the TRAC or FOXP3 locus, respectively. […] Panel B depicts a timeline showing steps for dual AAV editing of CD4+ T cells and expansion with Rapalog. Human CD4+ T cells were edited using human TRAC gRNA_4, human FOXP3 gRNA_T9 and #3251 (MND.mCherry.FKBP.IL2RG) and #3207 (MND.GFP.FRB.IL2RB) AAV constructs (two-loci dual editing). Immediately following electroporation, the cells were placed in either 20% or 2.5% FBS containing media (recovery media). After ~16 h, the media was replaced with 20% FBS containing media and FACS analysis done on day 3 to determine editing rate.
In order to obtain sufficient numbers of cells for therapeutic use, it may be useful, in some contexts, to selectively expand engineered cells in vitro. […] See e.g., FIG. 108. In such methods, FRB-IL2RB and FKBP-IL2RG components were contained in the same cassette to select for single integration events.
For these studies, FRB-IL2RB and FKBP-IL2RG components were split into two separate cassettes, one containing GFP and the other containing mCherry, to allow for selection of two independent integrations.
A timeline for key steps for dual AAV editing of CD4+ T cells and expansion with Rapalog is depicted in FIG. 124B. […] Briefly, human CD4+ T cells were edited using human TRAC gRNA_4, and #3240 (MND.HA.FOXP3.FKBP.IL2RG) and #3243 (MND.T1D4.FRB.IL2RB) AAV constructs (single-locus dual editing). Immediately following electroporation, the cells were placed in 2.5% FBS containing media (recovery media) for ~24 hours and then maintained in 20% FBS containing media throughout the rest of the experiment.

Assay [2] concerns split-DISC (#3280 and #3207) dual-edited human CD4+ T cells. As to the kind of experiment: Enrichment/expansion of split-DISC dual-edited CD4+ T cells. It is filed as cell-based. To be noted: 7-day treatment in AP21967 in gREX, from 340,000 cells seeded.
Experimental: Cells were bead-stimulated (CD3/CD28) for 3 days prior to editing. […] Panel C depicts flow plots show the percentage of GFP/mCherry double-positive cells on day 3 post-editing.
Dual-editing was performed as described in FIG. 70.
Split-DISC constructs were used to determine the enrichment and expansion of dual-edited T cells. The ability to scale up manufacturing to obtain cell numbers sufficient for animal studies by expanding edited CD4+ T cells in gREX flasks was assessed. In particular, dual-editing and enrichment of human CD4+ T Cells using split-DISC constructs was studied. […] Each repair template (#3280 and #3207) was flanked by identical homology arms matched to a gRNA targeting the TRAC locus. […] Cells were bead stimulated (CD3/CD28) for 3 days prior to editing. Immediately following electroporation, the cells were placed in 2.5% FBS containing media (recovery media) for ~24 hours and then maintained in 20% FBS containing media throughout the rest of the experiment. Three days post editing, cells were analyzed by flow for GFP and mCherry expression, and then expanded in media containing 50 ng/ml human IL-2 or 100 nM Rapalog.
Cells were bead stimulated (CD3/CD28) for 3 days prior to editing. Three days post editing, cells were analyzed by flow for GFP and mCherry expression, and then expanded in media containing 100 nM Rapalog for an additional 7 days.

In the case of `CO[C@H]1[C@@H](O)[C@H](C)C[C@H](C)/C=C/C=C/C=C(\C)[C@@H](c2c[nH]c3c(C)cccc23)C[C@@H]2CC[C@@H](C)[C@@](O)(O2)C(=O)C(=O)N2CCCC[C@H]2C(=O)O[C@H]([C@H](C)C[C@@H]2CC[C@@H](O)[C@H](OC)C2)C[C@H](O)[C@H](C)/C=C(\C)[C@H]1O` [Rapalog], the “enrichment of double-positive cells” value in assay [1] (#3240 and #3243, cells recovered in 2.5% FBS, 7 days of Rapalog treatment) is about 10 fold. The “FOXP3/T1D4 double positive cells” value in assay [1] (#3240 and #3243, day 7, 100 nM AP21967 or 50 ng/mL IL-2, initial 1.6%) was determined as 19.1%. The GFP/mCherry double-positive cells in assay [1] (donor R003471, enriched in presence of Rapalog (FIG. 32)) stood at 28.5%; in assay [1] (donor R003657, enriched in presence of Rapalog (FIG. 32)), 13.8%; in assay [1] (two-loci #3207 and #3251, repeat experiment (FIG. 65), 10 days, initial 15.4%), 54%. In addition, the “enrichment of double-positive antigen-specific Treg population” value in assay [1] (over the course of the 10 day study) is listed as “approximately 15 fold”. For the same compound, in assay [2], the “expansion of double positive cells” value amounted to 32 fold.
